Results: paper PMC10824666 (Nature Cancer, 2023)
Like-named read-outs stand apart in the source and are kept apart here. Values belong to the molecule of their own block, whether it stands above or below them.

Tests used:
Test in all cases: biochemical
Parameters in all cases: Eurofins DiscoverX kinase panel, competitive binding assay at 1 uM, percent of DMSO control
Settings in all cases: competitive binding, percent of DMSO control
Aurora 2 = molecular target: T1, Aurora 2 (Homo sapiens, UniProt O14965)
T1 construct: gene AURKA
T1 sequence (O14965 1-403): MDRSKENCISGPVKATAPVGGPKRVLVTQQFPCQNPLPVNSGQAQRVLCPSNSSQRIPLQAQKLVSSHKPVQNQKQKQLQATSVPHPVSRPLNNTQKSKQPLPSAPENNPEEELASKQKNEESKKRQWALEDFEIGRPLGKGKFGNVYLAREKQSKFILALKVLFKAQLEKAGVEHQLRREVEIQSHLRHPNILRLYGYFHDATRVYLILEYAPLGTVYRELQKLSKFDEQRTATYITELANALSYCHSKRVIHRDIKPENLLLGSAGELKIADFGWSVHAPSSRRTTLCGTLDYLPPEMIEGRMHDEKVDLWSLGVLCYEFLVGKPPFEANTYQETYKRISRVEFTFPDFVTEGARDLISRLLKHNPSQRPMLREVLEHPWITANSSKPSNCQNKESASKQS
Procedure, shortened: (§1)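 Competitive binding assay across a 96-kinase panel with KIF18A compounds at 1 µM; values given as percentage of control (POC), single experiment.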

LCK = LCK (Homo sapiens, UniProt P06239)
Procedure, shortened: as §1

MEK5 = molecular target: T2, MEK5 (Homo sapiens, UniProt Q13163)
T2 construct: gene MAP2K5
T2 sequence (Q13163 1-448): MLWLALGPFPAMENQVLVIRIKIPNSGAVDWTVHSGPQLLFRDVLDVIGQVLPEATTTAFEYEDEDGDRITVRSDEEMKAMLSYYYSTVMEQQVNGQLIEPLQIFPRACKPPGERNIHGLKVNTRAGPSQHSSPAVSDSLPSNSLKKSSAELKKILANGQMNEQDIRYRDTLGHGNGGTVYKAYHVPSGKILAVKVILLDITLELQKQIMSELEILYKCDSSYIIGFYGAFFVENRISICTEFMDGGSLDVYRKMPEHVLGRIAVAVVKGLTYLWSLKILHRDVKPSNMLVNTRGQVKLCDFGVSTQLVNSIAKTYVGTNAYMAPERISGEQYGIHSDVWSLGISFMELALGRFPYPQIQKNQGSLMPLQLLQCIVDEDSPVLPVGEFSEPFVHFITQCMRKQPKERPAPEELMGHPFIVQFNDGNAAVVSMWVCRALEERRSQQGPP
Procedure, shortened: as §1

FGFR1 = FGFR1 (Homo sapiens, UniProt P11362)
Procedure, shortened: as §1

Fyn = Fyn (Homo sapiens, UniProt P06241)
Procedure, shortened: as §1

PAK 2 = molecular target: T3, PAK 2 (Homo sapiens, UniProt Q13177)
T3 construct: gene PAK2
Procedure, shortened: as §1

Syk = Syk (Homo sapiens, UniProt P43405)
Procedure, shortened: as §1

TNIK = TNIK (Homo sapiens, UniProt Q9UKE5)
Procedure, shortened: as §1

[1] = read-out: Kinome Profiling performed by Eurofins DiscoverX / AM-1882, 1.0 µM / POC
[2] = read-out: Kinome Profiling performed by Eurofins DiscoverX / AM-5308, 1.0 µM / POC
[3] = read-out: Kinome Profiling performed by Eurofins DiscoverX / AM-0277, 1.0 µM / POC

Chain of TNIK (Q9UKE5 whole entry): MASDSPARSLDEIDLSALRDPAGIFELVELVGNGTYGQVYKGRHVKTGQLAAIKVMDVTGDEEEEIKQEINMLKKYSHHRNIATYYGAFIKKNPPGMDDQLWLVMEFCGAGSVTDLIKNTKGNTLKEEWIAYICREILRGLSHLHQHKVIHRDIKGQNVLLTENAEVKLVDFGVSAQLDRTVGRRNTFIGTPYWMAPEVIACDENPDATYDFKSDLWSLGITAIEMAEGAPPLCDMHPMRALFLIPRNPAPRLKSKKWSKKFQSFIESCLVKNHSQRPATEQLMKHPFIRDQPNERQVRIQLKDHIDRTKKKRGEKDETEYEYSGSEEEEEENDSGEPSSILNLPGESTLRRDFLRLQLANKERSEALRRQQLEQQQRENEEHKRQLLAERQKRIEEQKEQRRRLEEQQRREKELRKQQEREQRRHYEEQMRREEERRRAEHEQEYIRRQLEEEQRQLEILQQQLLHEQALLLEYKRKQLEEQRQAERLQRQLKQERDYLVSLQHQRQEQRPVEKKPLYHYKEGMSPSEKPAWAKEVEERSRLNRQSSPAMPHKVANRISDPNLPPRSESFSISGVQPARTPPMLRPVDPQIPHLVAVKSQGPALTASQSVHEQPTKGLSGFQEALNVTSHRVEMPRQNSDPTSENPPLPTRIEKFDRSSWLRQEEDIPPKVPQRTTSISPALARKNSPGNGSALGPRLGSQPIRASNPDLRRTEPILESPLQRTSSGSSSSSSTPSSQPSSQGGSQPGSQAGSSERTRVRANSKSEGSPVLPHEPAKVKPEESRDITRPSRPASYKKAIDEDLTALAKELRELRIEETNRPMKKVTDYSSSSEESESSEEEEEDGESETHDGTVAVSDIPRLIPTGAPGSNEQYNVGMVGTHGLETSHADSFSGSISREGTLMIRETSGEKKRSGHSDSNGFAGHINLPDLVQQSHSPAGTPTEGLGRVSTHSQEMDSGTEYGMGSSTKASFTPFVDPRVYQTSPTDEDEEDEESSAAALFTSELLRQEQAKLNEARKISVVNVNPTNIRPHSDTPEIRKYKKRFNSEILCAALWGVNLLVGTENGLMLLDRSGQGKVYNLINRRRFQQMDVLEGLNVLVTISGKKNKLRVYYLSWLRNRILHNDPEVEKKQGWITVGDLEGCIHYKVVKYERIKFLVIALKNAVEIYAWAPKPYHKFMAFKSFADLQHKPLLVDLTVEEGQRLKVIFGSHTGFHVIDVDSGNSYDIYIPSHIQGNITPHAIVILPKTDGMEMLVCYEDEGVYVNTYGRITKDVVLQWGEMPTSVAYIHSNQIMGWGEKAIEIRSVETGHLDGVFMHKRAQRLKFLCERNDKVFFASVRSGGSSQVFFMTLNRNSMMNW
Chain of FGFR1 (P11362 whole entry): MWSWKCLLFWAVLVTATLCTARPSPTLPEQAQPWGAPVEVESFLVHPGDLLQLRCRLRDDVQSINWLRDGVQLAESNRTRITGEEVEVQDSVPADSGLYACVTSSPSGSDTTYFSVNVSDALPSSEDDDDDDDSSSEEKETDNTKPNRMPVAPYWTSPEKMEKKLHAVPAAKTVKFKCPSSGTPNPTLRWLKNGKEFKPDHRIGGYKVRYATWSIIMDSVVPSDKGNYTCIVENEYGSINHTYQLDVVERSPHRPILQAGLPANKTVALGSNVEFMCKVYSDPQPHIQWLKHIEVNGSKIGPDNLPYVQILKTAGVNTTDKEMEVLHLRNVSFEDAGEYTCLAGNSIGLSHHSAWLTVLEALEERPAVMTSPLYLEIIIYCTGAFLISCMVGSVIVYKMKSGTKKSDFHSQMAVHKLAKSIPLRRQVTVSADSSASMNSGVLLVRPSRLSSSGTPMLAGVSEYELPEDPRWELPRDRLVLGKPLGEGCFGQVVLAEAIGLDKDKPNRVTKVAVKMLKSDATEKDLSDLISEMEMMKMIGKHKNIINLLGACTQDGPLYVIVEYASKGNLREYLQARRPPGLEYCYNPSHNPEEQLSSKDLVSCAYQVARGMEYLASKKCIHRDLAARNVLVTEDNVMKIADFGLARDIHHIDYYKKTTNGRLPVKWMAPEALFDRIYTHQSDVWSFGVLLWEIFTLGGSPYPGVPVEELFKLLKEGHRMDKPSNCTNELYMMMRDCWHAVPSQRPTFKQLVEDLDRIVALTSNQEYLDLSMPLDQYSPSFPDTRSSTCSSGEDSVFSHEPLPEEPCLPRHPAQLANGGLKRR
Chain of Fyn (P06241 whole entry): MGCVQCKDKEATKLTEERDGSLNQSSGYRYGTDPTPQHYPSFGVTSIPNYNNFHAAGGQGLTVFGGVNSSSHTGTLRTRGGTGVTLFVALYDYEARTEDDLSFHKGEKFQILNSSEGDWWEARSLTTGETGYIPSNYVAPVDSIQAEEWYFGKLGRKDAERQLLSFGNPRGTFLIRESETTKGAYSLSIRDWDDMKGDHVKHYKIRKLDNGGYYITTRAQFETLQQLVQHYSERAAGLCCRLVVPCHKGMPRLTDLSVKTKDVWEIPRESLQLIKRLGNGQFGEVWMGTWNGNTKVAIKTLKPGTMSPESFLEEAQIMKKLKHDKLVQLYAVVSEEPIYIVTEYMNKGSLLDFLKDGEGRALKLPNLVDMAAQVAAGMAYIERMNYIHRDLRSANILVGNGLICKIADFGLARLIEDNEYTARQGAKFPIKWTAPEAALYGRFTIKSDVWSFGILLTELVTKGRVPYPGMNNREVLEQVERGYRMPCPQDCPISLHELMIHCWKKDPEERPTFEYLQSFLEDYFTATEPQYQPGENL
T3 sequence (Q13177 whole entry): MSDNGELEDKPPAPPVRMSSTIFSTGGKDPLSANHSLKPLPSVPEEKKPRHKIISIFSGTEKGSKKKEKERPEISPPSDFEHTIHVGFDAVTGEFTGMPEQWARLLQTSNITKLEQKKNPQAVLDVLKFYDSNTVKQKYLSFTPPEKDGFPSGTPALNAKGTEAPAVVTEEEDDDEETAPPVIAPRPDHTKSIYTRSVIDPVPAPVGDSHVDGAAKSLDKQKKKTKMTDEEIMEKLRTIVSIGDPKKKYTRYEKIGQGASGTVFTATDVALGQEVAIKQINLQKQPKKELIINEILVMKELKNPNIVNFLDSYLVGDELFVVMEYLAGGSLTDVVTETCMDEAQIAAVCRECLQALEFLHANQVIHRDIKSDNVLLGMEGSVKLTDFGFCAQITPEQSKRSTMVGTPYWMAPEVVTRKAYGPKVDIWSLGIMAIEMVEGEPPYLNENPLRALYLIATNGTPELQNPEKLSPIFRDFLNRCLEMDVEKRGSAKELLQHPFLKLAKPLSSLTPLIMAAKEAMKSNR
Chain of LCK (P06239 whole entry): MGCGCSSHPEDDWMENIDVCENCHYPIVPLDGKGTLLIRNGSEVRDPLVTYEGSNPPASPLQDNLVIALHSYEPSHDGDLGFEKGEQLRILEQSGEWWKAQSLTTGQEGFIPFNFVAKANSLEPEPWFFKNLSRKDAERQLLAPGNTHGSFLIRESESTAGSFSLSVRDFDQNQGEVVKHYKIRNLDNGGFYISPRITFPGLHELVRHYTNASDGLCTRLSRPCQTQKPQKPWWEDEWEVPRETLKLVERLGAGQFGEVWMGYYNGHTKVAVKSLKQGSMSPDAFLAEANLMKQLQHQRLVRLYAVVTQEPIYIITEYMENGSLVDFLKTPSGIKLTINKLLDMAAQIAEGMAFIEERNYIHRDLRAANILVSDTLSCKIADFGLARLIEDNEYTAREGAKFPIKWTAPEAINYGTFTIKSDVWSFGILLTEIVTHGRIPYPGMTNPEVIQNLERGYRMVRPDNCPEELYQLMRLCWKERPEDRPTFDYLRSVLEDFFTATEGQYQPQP

remaining activity at 1 µM (Aurora 2; [1]): 100%
remaining activity at 1 µM (LCK; [1]): 95%
remaining activity at 1 µM (MEK5; [1]): 38.5%
remaining activity at 1 µM (FGFR1; [1]): 98%
remaining activity at 1 µM (Fyn; [1]): 85.5%
remaining activity at 1 µM (PAK 2; [1]): 100%
remaining activity at 1 µM (Syk; [1]): 89.5%
remaining activity at 1 µM (TNIK; [1]): 82%
Structure (SMILES): CC(C)(C)NS(=O)(=O)c1cccc(NC(=O)c2ccc(S(=O)(=O)NC(C)(C)C)cc2N2CCC3(CC2)CC3)c1 [AM-1882]

remaining activity at 1 µM (Aurora 2; [2]): 100%
remaining activity at 1 µM (LCK; [2]): 92%
remaining activity at 1 µM (MEK5; [2]): 99.5%
remaining activity at 1 µM (FGFR1; [2]): 94.5%
remaining activity at 1 µM (Fyn; [2]): 92%
remaining activity at 1 µM (PAK 2; [2]): 66.5%
remaining activity at 1 µM (Syk; [2]): 79.5%
remaining activity at 1 µM (TNIK; [2]): 52.5%
Structure (SMILES): C[C@@H]1CN(c2cccc(NC(=O)c3ccc(NS(=O)(=O)CCO)cc3N3CCC4(CC3)CC4)n2)CCO1 [AM-5308]

remaining activity at 1 µM (Aurora 2; [3]): 100%
remaining activity at 1 µM (LCK; [3]): 92%
remaining activity at 1 µM (MEK5; [3]): 86%
remaining activity at 1 µM (FGFR1; [3]): 94%
remaining activity at 1 µM (Fyn; [3]): 100%
remaining activity at 1 µM (PAK 2; [3]): 100%
remaining activity at 1 µM (Syk; [3]): 100%
remaining activity at 1 µM (TNIK; [3]): 88%
Structure (SMILES): CC(C)(CO)Nc1ccc(C(=O)Nc2cccc(S(=O)(=O)C3CCCC3)c2)c(N2CCC3(CC2)CC3)n1 [AM-0277]
